Measurements from patent publication US20120276225A1, “PHYTOESTROGENIC NUTRACEUTICAL COMPOSITION FROM PALM LEAF EXTRACT” (UNIVERSITI PUTRA MALAYSIA, priority 2009, published 2012).

Assays:
[1] = system: vaginal epithelium in the immature female mice; conditions: cited from earlier work
[2] = system: vaginal epithelium and uterus of ovarectomized female Sprague-Dawley rats; assay: Estrogenic activity in bilaterally ovarectomized rats (vaginal cornification, uterine wet weight); type: in vivo, rat; conditions: positive control gavaged daily 5 mg/kg BW
Experimental: Phytoestrogenic enhancing activities of PLE were evaluated in normal and ovariectomised rats at 150 and 300 mg/kg doses. Estrogenic activity of the alcoholic extract was assessed in bilaterally ovarectomized female Sprague-Dawley rats taking percentage vaginal cornification, and uterine wet weight as parameters of assessment. Ovarectomized female rats (9 rats per group) given distilled water were used as a negative control, while rats gavaged daily with 5 mg/kg BW diethylstilbesterol were used as a positive control. At the end of treatment period of 14 days, rats were euthanized; the uteri were dissected and weighed, thereafter.

CC1(C)[C@H]2C(=COc3cc(O)ccc32)[C@]2(O)C(=O)C[C@]3(O)C[C@H]1[C@H]2[C@H]3O [Miroestrol]
cornification of the vaginal epithelium [1]: produced cornification of the vaginal epithelium

CC/C(=C(/CC)c1ccc(O)cc1)c1ccc(O)cc1 [synthetic estrogen, diethylstilbesterol]
cornification of the vaginal epithelium [2]: induced a cornification of the vaginal epithelium as early as the third day of treatment
